In one test the test system is A. baumannii. As to the kind of experiment: MIC of antimicrobial peptides (Table 4). Type of test: cell-based, Acinetobacter baumannii.
The subject of the next test is MRSA. As to the kind of experiment: MIC of antimicrobial peptides (Table 4). It counts as cell-based, Methicillin-resistant Staphylococcus aureus.
For a further test, the system named is B. subtilis. Description: MIC of antimicrobial peptides (Table 4). Type of test: cell-based, Bacillus subtilis.
Test [1] has as its system bacteria, fungi, and/or yeasts. It counts as binding.
Another test has as its system A. niger. Description: MIC of antimicrobial peptides (Table 4). Type of test: cell-based, Aspergillus niger.
Another test relates to E. coli. As to the kind of experiment: MIC of antimicrobial peptides (Table 4). It counts as cell-based, Escherichia coli.
In another test the test system is S. epidermidis. As to the kind of experiment: MIC of antimicrobial peptides (Table 4). It counts as cell-based, Staphylococcus epidermidis.
The subject of a further test is S. mutans. As to the kind of experiment: MIC of antimicrobial peptides (Table 4). It counts as cell-based, Streptococcus mutans.
A further test has as its system S. pneumoniae. As to the kind of experiment: MIC of antimicrobial peptides (Table 4). Type of test: cell-based, Streptococcus pneumoniae.
The test system of another test is C. jeikeium. As to the kind of experiment: MIC of antimicrobial peptides (Table 4). It counts as cell-based, Corynebacterium jeikeium.
The test system of another test is P. aeruginosa. As to the kind of experiment: MIC of antimicrobial peptides (Table 4). It counts as cell-based, Pseudomonas aeruginosa.
The test system of the next test is T. rubrum. Description: MIC of antimicrobial peptides (Table 4). It counts as cell-based, Trichophyton rubrum.
The next test concerns C. difficile. As to the kind of experiment: MIC of antimicrobial peptides (Table 4). Type of test: cell-based, Clostridium difficile.
In the next test the test system is C. albicans. Description: MIC of antimicrobial peptides (Table 4). Type of test: cell-based, Candida albicans.
A further test concerns E. faecalis. Description: MIC of antimicrobial peptides (Table 4). It counts as cell-based, Enterococcus faecalis.
The mark [2] stands for this setting: microorganism(s) listed as target(s) of the targeting peptide, wrapped target lists given cell by cell.

The record followed here is patent US20120003661A1, “METHODS AND DEVICES FOR THE SELECTIVE DETECTION OF MICROORGANISMS” (C3 JIAN, INC., priority 2010, published 2012).

“Also recorded” adds a separate entry of the source. Like-named read-outs stand apart in the source and are kept apart here. Ends that are not written are not given here.

In the case of MGIIAGIIKFIKGLIEKFTGK [PF-006], the “Organism MIC” value in the test with A. baumannii was “A. baumannii, 50 μM”; with MRSA it was “MRSA, 50 μM”; in the test with B. subtilis (B. subtilis), “B. subtilis, 25 μM”. The “Target(s)” value in test [1] (setting [2]) was “S. epidermidis, M. luteus, E. coli,; also recorded: P. aeruginosa, MRSA, E. faecalis,; also recorded: C. jeikeium, C. jejuni”.

For RESKLIAMADMIRRRI-NH2 [PF-545], the “Organism MIC” value is “MRSA, 50 μM” in the test on MRSA; “A. niger, 50 μM” in the test on A. niger; “B. subtilis, 25 μM” with B. subtilis (B. subtilis).

Consider “FESKILNASKELDKEKKVNTALSFNSHQDFAKAYQNGKI [PF-606]”, for which the “Organism MIC” value in the test on E. coli was “E. coli, 50 μM”; in the test with MRSA it was “MRSA, 50 μM”; with S. epidermidis, “S. epidermidis, 50 μM”; in the test on S. mutans, “S. mutans, 50 μM”; in the test with S. pneumoniae, “S. pneumoniae, 50 μM”.

As to SFMPEIQKNTIPTQMK [PF-512], in the test with S. pneumoniae, the “Organism MIC” value is “S. pneumoniae, 50 μM”.

On to YIQFHLNQQPRPKVKKIKIFL-NH2 [PF-531], for which the “Organism MIC” value is on record as “C. jeikeium, 6.25 μM” in the test with C. jeikeium; “A. baumannii, 25 μM” in the test on A. baumannii; “S. epidermidis, 50 μM” in the test with S. epidermidis; “A. niger, 25 μM” with A. niger; “P. aeruginosa, 50 μM” in the test on P. aeruginosa; “T. rubrum, 50 μM” with T. rubrum. Further, the “Organism MIC” value is listed as “S. mutans, 12.5 μM” in the test on S. mutans; “B. subtilis, 25 μM” with B. subtilis (B. subtilis); “C. difficile, 12.5 μM” in the test with C. difficile.

As to “TKKIELKRFVDAFVKKSYENYILERELKKLIKAINEELPTK [PF-600]”, the “Organism MIC” value is listed as “E. coli, 50 μM” with E. coli and “S. pneumoniae, 50 μM” with S. pneumoniae.

With KFSDQIDKGQDALKDKLGDL [PF-525], the “Organism MIC” value in the test with A. niger is “A. niger, 50 μM”; in the test with S. pneumoniae, “S. pneumoniae, 50 μM”.

SKFKVLRKIIIKEYKGELMLSIQKQR [PF-530]: the “Organism MIC” value with A. baumannii is given as “A. baumannii, 25 μM”.

On to RRGCTERLRRMARRNAWDLYAEHFY [PF-148], for which the “Organism MIC” value with A. niger is reported as “A. niger, 50 μM”; with B. subtilis (B. subtilis) it was “B. subtilis, 50 μM”. In addition, the “Target(s)” value in test [1] (setting [2]) is “S. epidermidis, M. luteus, P. mirabilis,; also recorded: E. coli, P. aeruginosa,; also recorded: C. albicans, MRSA, S. pneumoniae,; also recorded: E. faecalis, C. jeikeium,; also recorded: C. jejuni, M. smegmatis”.

In the case of FQKPFTGEEVEDFQDDDEIPTII [PF-437], in the test on S. pneumoniae, the “Organism MIC” value is given as “S. pneumoniae, 50 μM”.

On to KNKKQTDILEKVKEILDKKKKTKSVGQKLY [PF-538], for which the “Organism MIC” value in the test with A. baumannii is given as “A. baumannii, 25 μM”; in the test with C. difficile it was “C. difficile, 25 μM”.

For the substance FELVDWLETNLGKILKSKSA-NH2 [PF-522], in the test on C. difficile, the “Organism MIC” value was “C. difficile, 25 μM”.

For the substance VLPFPAIPLSRRRACVAAPRPRSRQRAS [PF-168], the “Organism MIC” value with MRSA was “MRSA, 50 μM”; in the test with A. niger it was “A. niger, 50 μM”; in the test with T. rubrum, “T. rubrum, 50 μM”. Further, the “Target(s)” value in test [1] (setting [2]) is listed as “yeast cells; also recorded: S. epidermidis, M. luteus, E. coli,; also recorded: C. albicans, MRSA, C. jeikeium,; also recorded: C. jejuni”.

For the substance ASKQASKQASKQASKQASKQASRSLKNHLL [PF-523], the “Organism MIC” value in the test with S. pneumoniae is listed as “S. pneumoniae, 50 μM”.

Turning to LSEMERRRLRKRA-NH2 [PF-529], the “Organism MIC” value in the test with A. niger is given as “A. niger, 50 μM”; in the test on S. pneumoniae it was “S. pneumoniae, 50 μM”.

On to “LGLTAGVAYAAQPTNQPTNQPTNQPTNQPTNQPTNQPRW-NH2 [PF-520]”, for which the “Organism MIC” value in the test with S. pneumoniae is given as “S. pneumoniae, 50 μM”.

As for MIRIRSPTKKKLNRNSISDWKSNTSGRFFY [PF-283], the “Organism MIC” value with S. epidermidis is “S. epidermidis, 50 μM”; in the test on T. rubrum, “T. rubrum, 50 μM”; in the test on B. subtilis (B. subtilis), “B. subtilis, 50 μM”.

Consider KLFKFLRKHLL [K-10], for which, in the test with S. mutans, the “Organism MIC” value is recorded as “S. mutans, 4 μM”.

Consider VYSFLYVLVIVRKLLSMKKRIERL [PF-499], for which, in the test with B. subtilis (B. subtilis), the “Organism MIC” value was “B. subtilis, 50 μM”.

For PDAPRTCYHKPILAALSRIVVTDR [PF-524], the “Organism MIC” value in the test with S. pneumoniae was “S. pneumoniae, 50 μM”.

Take KFQGEFTNIGQSYIVSASHMSTSLNTGK [PF-583]: the “Organism MIC” value in the test with MRSA is recorded as “MRSA, 50 μM”; in the test with S. epidermidis, “S. epidermidis, 50 μM”. Further, in test [1] (setting [2]), the “Target(s)” value is reported as “C. albicans hyphae”.

Regarding FIRKFLKKWLL [K-9], the “Organism MIC” value with S. mutans is given as “S. mutans, 4 μM”.

Consider NYRLVNAIFSKIFKKKFIKF [K-7], for which the “Organism MIC” value in the test with S. mutans is “S. mutans, 12.5 μM”.

As to “GSVIKKRRKRMAKKKHRKLLKKTRIQRRRAGK [PF-527]”, the “Organism MIC” value in the test with C. jeikeium was “C. jeikeium, 6.25 μM”; with MRSA, “MRSA, 50 μM”; in the test on S. epidermidis it was “S. epidermidis, 25 μM”; in the test with A. niger, “A. niger, 50 μM”; with P. aeruginosa, “P. aeruginosa, 50 μM”; in the test on T. rubrum, “T. rubrum, 25 μM”. For the same substance, the “Organism MIC” value in the test on B. subtilis was “B. subtilis, 12.5 μM”. The “Target(s)” value in [1] is “S. epidermidis, M. luteus, P. mirabilis,; also recorded: E. coli, P. aeruginosa,; also recorded: MRSA, S. pneumoniae, E. faecalis,; also recorded: C. jeikeium, C. jejuni”.

As to SLQSQLGPCLHDQRH [PF-448], the “Organism MIC” value was “A. niger, 25 μM” in the test on A. niger and “S. pneumoniae, 50 μM” in the test with S. pneumoniae.

Regarding GIFKKFVKILYKVQKL [K-22], the “Organism MIC” value with S. mutans is on record as “S. mutans, 8 μM”.

In the case of WSRVPGHSDTGWKVWHRW-NH2 [PF-547], the “Organism MIC” value is listed as “T. rubrum, 25 μM” in the test with T. rubrum; “S. mutans, 12.5 μM” in the test with S. mutans; “B. subtilis, 25 μM” with B. subtilis (B. subtilis).

Regarding “MKRRRCNWCGKLFYLEEKSKEAYCCKECRKKAKKVKK [PF-307]”, the “Organism MIC” value with T. rubrum is recorded as “T. rubrum, 50 μM”; with B. subtilis (B. subtilis) it was “B. subtilis, 50 μM”; with C. albicans, “C. albicans, 50 μM”.

In the case of LLKLLKLKKLKF [K-19], the “Organism MIC” value with S. mutans is recorded as “S. mutans, 16 μM”.

As for LSLATFAKIFMTRSNWSLKRFNRL [PF-278], the “Organism MIC” value is recorded as “S. epidermidis, 50 μM” in the test on S. epidermidis; “T. rubrum, 50 μM” with T. rubrum; “C. albicans, 50 μM” with C. albicans.

For the substance FIRKFLQKLHL [K-16], the “Organism MIC” value in the test with MRSA is “MRSA, 25 μM”; with P. aeruginosa, “P. aeruginosa, 12.5 μM”; with S. mutans, “S. mutans, 8 μM”.

Take KILKFLFKKVF [K-8]: the “Organism MIC” value in the test with S. mutans is listed as “S. mutans, 4 μM”.

In the case of FLKFLKKFFKKLKY [K-20], the “Organism MIC” value in the test on S. mutans is recorded as “S. mutans, 8 μM”.

Turning to MRFGSLALVAYDSAIKHSWPRPSSVRRLRM [PF-672], the “Organism MIC” value is recorded as “MRSA, 1.56 μM” in the test with MRSA; “S. epidermidis, 0.39 μM” with S. epidermidis; “A. niger, 3 μM” in the test on A. niger; “E. faecalis, 3.13 μM” in the test with E. faecalis; “T. rubrum, 0.78 μM” in the test with T. rubrum; “B. subtilis, 0.78 μM” with B. subtilis (B. subtilis). Moreover, the “Organism MIC” value in the test on C. albicans was “C. albicans, 1.56 μM”.

Consider CGKLLEQKNFFLKTR [PF-521], for which, in the test with S. pneumoniae, the “Organism MIC” value is recorded as “S. pneumoniae, 50 μM”.

NYAVVSHT [PF-209]: the “Organism MIC” value in the test with MRSA is given as “MRSA, 50 μM”.

As to GILKKLFTKVF [K-13], the “Organism MIC” value in the test on S. mutans is recorded as “S. mutans, 16 μM”.

KILKFLFKQVF [K-11]: the “Organism MIC” value in the test with S. mutans is recorded as “S. mutans, 4 μM”.

Consider VMQSLYVKPPLILVTKLAQQN [PF-511], for which the “Organism MIC” value with S. pneumoniae is “S. pneumoniae, 50 μM”.

Take LVLRICTDLFTFIKWTIKQRKS [PF-497]: in the test with B. subtilis (B. subtilis), the “Organism MIC” value is “B. subtilis, 50 μM”.

Take GIVLIGLKLIPLLANVLR [PF-322]: in the test on B. subtilis (B. subtilis), the “Organism MIC” value was “B. subtilis, 50 μM”.
